“And” between values parts separate entries of the source, which are not always exact repeats. Identical values can stand only once.
What was measured:
[1] = target: covalently-crosslinked hexameric CA A14C/E45C/W184A/M185A (CA121) (Human immunodeficiency virus type 1 group M subtype B, UniProt P12493, A146C/E177C/M317A/W316A); experiment: Thermal shift assay (TSA) on CA hexamer stability; format: binding, HIV-1; conditions: 20 µM compound, 7.5 µM CA121
[2] = Cytotoxicity assay (XTT) in TZM-GFP cells; format: cell-based; conditions: human, mean ± SD, read-out: CC50 (concentration of compound causing 50% cell death)
HIV-1NL4-3 = experiment: microbe, parasite or virus in culture; format: cell-based; conditions: TZM-GFP cells, HIV-1NL4-3 MOI 0.1, 48 h, mean ± SD; for EC50: Human immunodeficiency virus 1, read-out: EC50 (concentration of compound inhibiting HIV-1 replication by 50%)
[3] = Microsomal stability, human liver microsomes; format: in vitro ADME; conditions: 0.5 mg/mL microsomal protein, NADPH, 37 °C; for half-life at 1 µM: human, liver microsomes, pH 7.4, 1 µM compound, read-out: Phase I metabolic stability t1/2, HLMs
[4] = Microsomal stability, mouse liver microsomes; format: in vitro ADME; conditions: pH 7.4, 1 µM compound, 0.5 mg/mL microsomal protein, NADPH, 37 °C, read-out: Phase I metabolic stability t1/2, MLMs
[5] = cited from earlier work
[6] = cited from earlier work; remark: listed apart in the source
[7] = Metabolites observed in the microsomal stability assay; format: in vitro ADME; conditions: observed in liver microsomal stability assay

Compound	TSA ΔTm (change of CA crosslinked hexamer melting temperature vs DMSO) [1]	CC50 at 72 h [2]	EC50 (HIV-1NL4-3)	half-life at 1 µM [3]	half-life at 1 µM [4]	EC50 (concentration of compound inhibiting HIV-1 replication by 50%) (HIV-1NL4-3)	Phase I metabolic stability t1/2, HLMs ([3]; 1 µM compound)	half-life (t1/2) in mouse liver microsomes (MLMs) [5]	half-life (t1/2) in human liver microsomes (HLMs) [6]	Metabolite (s) [7]
Cc1[nH]c2ccccc2c1CC(=O)N[C@@H](Cc1ccccc1)c1nccn1-c1ccc(C#N)cc1 [Compound 21]	2.2 ± 0.0 °C	> 50 µM	6.6 ± 0.4 µM							
Cc1[nH]c2ccccc2c1CC(=O)N[C@@H](Cc1ccccc1)c1nccn1-c1ccc(-c2nnn[nH]2)cc1 [Compound 22]	−0.3 ± 0.1 °C	> 50 µM	> 20 µM	1.3 ± 0.01 min	0.9 ± 0.01 min	no antiviral activity				
COc1ccc2[nH]cc(CC(=O)N[C@@H](Cc3ccccc3)c3ncccc3-c3ccc(Br)cc3)c2c1 [Compound 18]	6.3 ± 0.6 °C	40 ± 4 µM	2.1 ± 0.8 µM							
O=C(Cc1c[nH]c2ccccc12)N[C@@H](Cc1ccccc1)C(=O)N1CCCc2ccccc21 [Compound 3]	1.8 ± 1.2 °C	> 50 µM	> 20 µM							
COc1ccc2[nH]cc(CC(=O)N[C@@H](Cc3ccccc3)c3nccn3-c3ccc(Cl)cc3)c2c1 [Compound 23]	4.0 ± 0.3 °C	93 ± 2 µM	3.3 ± 0.03 µM							
O=C(Cn1cccn1)N[C@H](Cc1ccccc1)c1ncccc1-c1ccccc1 [Compound 6]	0.3 ± 0.1 °C	> 50 µM	> 15 µM							
Cc1[nH]c2ccccc2c1CC(=O)N[C@@H](Cc1ccccc1)c1ncccc1-c1ccccc1 [Compound 9]	4.5 °C and 4.5 ± 0.0 °C	< 50 µM	2.6 ± 0.4 µM	1.2 ± 0.04 min	1 ± 0.01 min					
O=C(Cn1ncc2ccccc21)N[C@H](Cc1ccccc1)c1ncccc1-c1ccccc1 [Compound 5]	0.1 ± 0.07 °C	< 50 µM	> 20 µM							
COc1ccc2[nH]cc(CC(=O)N[C@@H](Cc3ccccc3)c3nccn3-c3ccc(Br)cc3)c2c1 [Compound 24]	2.8 ± 0.3 °C	> 100 µM	3.5 ± 0.3 µM							
Cc1[nH]c2ccccc2c1CC(=O)N[C@@H](Cc1ccccc1)c1nccn1-c1ccccc1 [Compound 20]	3.9 °C and 3.9 ± 0.4 °C	> 50 µM	3.7 ± 0.8 µM	0.9 ± 0.004 min	0.7 ± 0.01 min					
O=C(Cc1c[nH]c2ccc(O)cc12)N[C@@H](Cc1ccccc1)c1ncccc1-c1ccc(Cl)cc1 [Compound 15]	8.7 °C and 8.7 ± 0.3 °C	44 ± 1 µM	0.31 ± 0.07 µM	27 min	3.1 ± 0.3 min		27.2 ± 0.5 min			
CCn1cc(CC(=O)N[C@@H](Cc2ccccc2)c2ncccc2-c2ccc(Br)cc2)c2ccccc21 [Compound 19]	6.3 ± 0.1 °C	41 ± 2 µM	3.2 ± 0.3 µM							
O=C(Cn1cccn1)N[C@@H](Cc1ccccc1)c1ncccc1-c1ccccc1 [Compound 11, (S)-N-(2-phenyl-1-(3-phenylpyridin-2-yl)ethyl)-2-(1H-pyrazol-1-yl)acetamide]		> 50 µM	5.1 ± 0.7 µM			low micromolar				
O=C(Cn1ncc2ccccc21)N[C@H](Cc1ccccc1)c1ncccc1-c1cccc2cn[nH]c12 [Compound 7]	0 ± 0 °C	> 50 µM	> 20 µM							
Cc1[nH]c2ccccc2c1CC(=O)N[C@@H](Cc1ccccc1)C(=O)N(C)c1ccccc1 [PF74, reference compound]	6.9 °C and 6.9 ± 0.5 °C		0.7 ± 0.07 µM					less than 1 min	less than 1 min	
COc1ccc2[nH]cc(CC(=O)N[C@@H](Cc3ccccc3)c3ncccc3-c3ccc(Cl)cc3)c2c1 [Compound 14]	7.8 ± 0.3 °C	39 ± 0.2 µM	1.4 ± 0.7 µM	1.7 ± 0.02 min	0.9 ± 0.004 min					15
O=C(Cn1cccn1)N[C@H](Cc1ccccc1)c1ncccc1-c1cccc2cn[nH]c12 [Compound 8]	0.1 ± 0.1 °C	> 50 µM	> 20 µM							
Cc1[nH]c2ccccc2c1CC(=O)N[C@@H](Cc1ccccc1)c1ncccc1-c1cccc(C#N)c1 [Compound 12]	−0.2 ± 0.07 °C	> 50 µM	> 20 µM							
O=C(Cn1ncc2ccccc21)N[C@@H](Cc1ccccc1)c1ncccc1-c1ccccc1 [Compound 10, (S)-2-(1H-indazol-1-yl)-N-(2-phenyl-1-(3-phenylpyridin-2-yl)ethyl)acetamide]		< 50 µM	8.8 ± 0.4 µM			low micromolar				
O=C(Cc1c[nH]c2ccccc12)N[C@@H](Cc1ccccc1)c1ncccc1-c1ccc(Cl)cc1 [Compound 13]	7.7 ± 0.2 °C	22 ± 2 µM	0.79 ± 0.25 µM							
Cc1[nH]c2ccccc2c1CC(=O)N[C@H](Cc1ccccc1)c1ncccc1-c1ccccc1 [Compound 4]		< 50 µM	> 20 µM			completely inactive				
CCn1cc(CC(=O)N[C@@H](Cc2ccccc2)c2ncccc2-c2ccc(Cl)cc2)c2ccccc21 [Compound 16]	6.6 ± 0.2 °C	41 ± 0.1 µM	2.7 ± 0.2 µM	1.4 ± 0.02 min	1.4 ± 0.02 min					15
Cc1[nH]c2ccccc2c1CC(=O)N[C@@H](Cc1ccccc1)C(=O)N1CCc2ccccc21 [Compound 1]	−0.5 °C	> 100 µM	> 20 µM							
O=C(Cc1c[nH]c2ccccc12)N[C@@H](Cc1ccccc1)C(=O)N1CCc2ccccc21 [Compound 2]	−1.0 °C	> 100 µM	> 20 µM							
COc1ccc2[nH]cc(CC(=O)N[C@@H](Cc3ccccc3)c3nccn3-c3ccc(I)cc3)c2c1 [Compound 25]	2.7 ± 0.1 °C	> 100 µM	3.3 ± 0.2 µM							
CCn1cc(CC(=O)N[C@@H](Cc2ccccc2)c2ncccc2-c2ccc(Cl)cc2)c2cc(OC)ccc21 [Compound 17]	5.9 ± 0.2 °C	48 ± 6 µM	3.6 ± 0.2 µM	1.3 ± 0.01 min	1.3 ± 0.005 min					15 and 14

Source: paper PMC8000227 (Viruses, 2021)
